From ChEMBL document CHEMBL4308854, “Novel indole-thiazolidinone conjugates: Design, synthesis and whole-cell phenotypic evaluation as a novel class of antimicrobial agents” (Eur J Med Chem, 2018)
Values after ≈ are worked out from the molar mass of the structure shown.

How the values were obtained:
CCRF-CEM = experiment: Growth inhibition of human CCRF-CEM cells assessed as cell growth at 10^-5 M incubated for 48 hrs by sulforhodamine B assay relative to control; format: cell-based; parameters: scale not given: the % may be the effect or the level left; settings: 10 µM
A549 = experiment: Growth inhibition of human A549 cells assessed as cell growth at 10^-5 M incubated for 48 hrs by sulforhodamine B assay relative to control; format: cell-based; parameters: scale not given: the % may be the effect or the level left; settings: a549, 48 h, 10 µM
NCI-H522 = experiment: Growth inhibition of human NCI-H522 cells assessed as cell growth at 10^-5 M incubated for 48 hrs by sulforhodamine B assay relative to control; format: cell-based; parameters: scale not given: the % may be the effect or the level left; settings: nci-h522, 48 h, 10 µM
IGROV-1 = experiment: Growth inhibition of human IGROV1 cells assessed as cell growth at 10^-5 M incubated for 48 hrs by sulforhodamine B assay relative to control; format: cell-based; parameters: scale not given: the % may be the effect or the level left; settings: igrov-1, 48 h, 10 µM
SN12C = experiment: Growth inhibition of human SN12C cells assessed as cell growth at 10^-5 M incubated for 48 hrs by sulforhodamine B assay relative to control; format: cell-based; parameters: scale not given: the % may be the effect or the level left; settings: 10 µM
UO-31 = experiment: Growth inhibition of human UO31 cells assessed as cell growth at 10^-5 M incubated for 48 hrs by sulforhodamine B assay relative to control; format: cell-based; parameters: scale not given: the % may be the effect or the level left; settings: uo-31, 48 h, 10 µM
[1] = Stability in mouse RAW264.7 cells measured after 48 hrs; format: ADME, cell-based; settings: raw264.7, 48 h
Staphylococcus aureus = experiment: Antibacterial activity against methicillin-resistant Staphylococcus aureus ATCC 33592 after 24 hrs by serial dilution method; format: functional; settings: ATCC 33592, 24 h
Enterococcus faecium = experiment: Antibacterial activity against vancomycin-resistant Enterococcus faecium ATCC 700221 after 24 hrs by serial dilution method; format: functional; settings: ATCC 700221, 24 h
Aspergillus fumigatus [2] = experiment: Potency index, ratio of amphotericin B MIC to compound MIC for antifungal activity against Aspergillus fumigatus RCMB 02568; format: functional
Aspergillus fumigatus [3] = experiment: Potency index, ratio of amphotericin B MIC to compound MIC for Aspergillus fumigatus RCMB 02568; format: functional

| SMILES | Activity (CCRF-CEM) | Activity (A549) | Activity (NCI-H522) | Activity (IGROV-1) | Activity (SN12C) | Activity (UO-31) | Stability [1] | MIC (Staphylococcus aureus) | MIC (Enterococcus faecium) | Ratio (Aspergillus fumigatus [2]) | Ratio (Aspergillus fumigatus [3]) |
| --- | --- | --- | --- | --- | --- | --- | --- | --- | --- | --- | --- |
| CCOC(=O)c1sc(/N=C2\NC(=O)/C(=C3/C(=O)N(Cc4ccccc4)c4ccc(Cl)cc43)S2)nc1C | 98.38% | 97.17% | 90.82% | 105.63% | 102.35% | 91.72% | Stable | – | – | – | – |
| CC(=O)c1sc(/N=C2\NC(=O)/C(=C3/C(=O)N(C)c4ccc(Cl)cc43)S2)nc1C | 111% | 105.29% | 88.75% | 94.36% | 96.85% | 90.16% | Stable | 3.9 µg/mL (≈ 9.01 µM) | 7.81 µg/mL (≈ 18 µM) | 2 | 2 |
